# Measurements from US11452292B2, “Biofilm inhibitor and method of inhibiting biofilm” (NDSU Research Foundation, priority 2017, dated 2022).
# Entries after “also recorded” stand apart in the source; their conditions may differ.
# What was measured:
# [1] = system: tested bacterial pathogens; assay: Biofilm in silicone tubing, EAA flush, ATP assay, summary over strains; assay type: cell-based
# Excerpt: An AV Fistula Needle 17 Ga.
# Y. enterocolitica [2] = assay: Biofilm amounts, CV assay, 24-well polystyrene plate; assay type: cell-based, Yersinia enterocolitica
# Excerpt: Data were expressed as OD600.
# C. sakazakii = assay: Biofilm amounts, ATP assay, 24-well polystyrene plate; assay type: cell-based; conditions: Cronobacter sakazakii, 37° C.
# P. aeruginosa [3] = assay: Viable cell counts in the liquid collected from the tubing before each treatment
# E. coli O157:H7 = assay type: cell-based, Escherichia coli O157:H7; conditions: 0.5% EAA
# P. aeruginosa [4] = assay: Biofilm in silicone tubing, EAA flush, CV assay; conditions: 100 mg/ml EAA
# S. enterica = assay type: cell-based, Salmonella enterica serovar Typhimurium
# S. aureus = assay: Viable cell counts in the liquid collected from the tubing before each treatment; assay type: cell-based, Staphylococcus aureus; conditions: before the 2nd treatment, 100 mg/ml EAA as first treatment
# total bacterial count = assay: Ground beef at 10° C., total bacterial count on PCA plates; assay type: cell-based; conditions: for total bacterial count in the presence of EAA: day 3, unsupplemented 9 log10; for Different from 0% (concentrations grouping differently from untreated control, Fisher's LSD and t-test): PCA, total bacterial count
# Procedure: (§1) Ground beef was obtained from the NDSU Meat Lab (ag.ndsu.edu/ansc/facilities/shepperd-arena). Precautionary steps that the slaughter facility undertakes to prevent microbial contamination of muscle meat include rinses of the hot carcass with hot water and 2.5% lactic acid (Birko Corp., Henderson, Colo.). Prior to cutting the meat, cattle halves are incubated for two weeks at a temperature between 0 and 2.2° C. For this Example, meat from two animals was ground within the NDSU Meat Lab and consecutively transferred on ice to the research lab where this Experiment was conducted. Approximately 4 pound of ground meat was obtained from two independent slaughter events (FIG. 6). These two original meat samples are referred to as biological replicates throughout this study. Each biological replicate was weighed into five aliquots of 200 g that were supplemented with 0 g, 0.1 g, 0.5 g, 1 g, or 5 g of liquid EAA (Alfa Aesar, Ward Hill Mass.). A total of six aliquots of 10 g were produced from each 200 g aliquot to allow for two technical replicates and determination of bacterial counts at three different time points during the incubation period. Aliquots were stored in Ziploc bags at −20° C.
# Meat samples were removed from the freezer and incubated at 10° C. for five days; bacterial counts were determined on days 1, 3, and 5. For one initial experiment, samples were removed after 1 h of incubation at 10° C. This aliquot is not included in FIG. 6.
# The content of each bag was transferred into a stomacher bag and Maximum Recovery Diluent (MRD) was added to a total of 50 ml. Meat was homogenized in a Seward Stomacher 400 Circulator (Cole Parmer, Vernon Hills, Ill.). The total bacterial count of each homogenate was determined by plating serial dilutions on Plate Count Agar (PCA). Pseudomonads were determined with Pseudomonas Selective Agar (PSA), lactobacilli with All Purpose Tween agar (APT), B. thermospacta with Streptomycin sulphate, Thallous Acetate and Actidione agar (STAA), and Enterobacteriaceae with Violet Red Bile Glucose agar (VRBG). For the composition of these media, see TABLE 7 (BD: Becton Dickinson). Each serial dilution was plated onto two separate agar plates to allow for two plate replicates (FIG. 6).
# Each experiment was performed in a total of 8 replicates (2 biological replicates×2 technical replicates×2 plate replicates). To prepare for analysis, the data sets were pre-processed by determining the averages for the 2 plate replicates. Data were analyzed for each EAA concentration and selective media and expressed as CFU/g of meat or log10 CFU/g of meat. The lower limit of detection was 49 CFU, which is the equivalent of 1.69 log10. This number was used for all experiments that yielded zero colonies from the undiluted homogenate. To determine log reductions, the log10 CFU/g of meat at a given concentration of EAA was subtracted from that obtained for the untreated control piece of meat. Average and standard errors were calculated across the two biological and two technical replicates. Statistical analysis was started with an Analysis of Variance (ANOVA) test that compared the means of the log10 CFU/g data across concentrations, days, and biological replicates to determine the main effects. For comparisons that determined statistically significant differences between the means (p-value below 0.05), Fisher's Least Significant Difference (LSD) test and a pairwise Student's t-test were performed as post hoc test to determine which of the groups were different from the others.
# P. aeruginosa [5] = assay: Viable cell counts from the biofilms in silicone tubing; conditions: 100 mg/ml of EAA, end of two week incubation
# P. aeruginosa [6] = assay: Biofilm in silicone tubing, EAA flush, ATP assay
# E. coli = conditions: cited from earlier work
# lactobacilli = assay: Ground beef at 10° C., counts on APT plates; assay type: cell-based; conditions: for Different from 0% (concentrations grouping differently from untreated control, Fisher's LSD and t-test): LPT, Lactobacilli
# Procedure: as §1, with “A total of six aliquots of 10 g were produced from each 200 g aliquot to allow for two technical replicates and determination of bacterial counts at three different time points during the incubation period. Aliquots were stored in Ziploc bags at −20° C.” left out
# Meat samples were removed from the freezer and incubated at 10° C. for five days; bacterial counts were determined on days 1, 3, and 5. […]
# The content of each bag was transferred into a stomacher bag and Maximum Recovery Diluent (MRD) was added to a total of 50 ml. […] The total bacterial count of each homogenate was determined by plating serial dilutions on Plate Count Agar (PCA). Pseudomonads were determined with Pseudomonas Selective Agar (PSA), lactobacilli with All Purpose Tween agar (APT), B. thermospacta with Streptomycin sulphate, Thallous Acetate and Actidione agar (STAA), and Enterobacteriaceae with Violet Red Bile Glucose agar (VRBG). […]
# Each experiment was performed in a total of 8 replicates (2 biological replicates×2 technical replicates×2 plate replicates). […] Data were analyzed for each EAA concentration and selective media and expressed as CFU/g of meat or log10 CFU/g of meat. […] Average and standard errors were calculated across the two biological and two technical replicates. […]
# Y. enterocolitica [7] = assay: Viable bacteria (cell counts) within the biofilm; assay type: cell-based, Yersinia enterocolitica
# rats = rats fed up to 300 mg/kg body weight of EAA every day for 28 days; cited from earlier work
# S. marcescens = assay: Biofilm in silicone tubing, EAA flush, ATP assay; conditions: 5 mg/ml EAA
# Y. enterocolitica [8] = assay: Biofilm in silicone tubing, EAA flush, CV assay; conditions: 10 mg/ml EAA
structure (smiles),measurement,setting,value
"CCOC(=O)CC(C)=O [EAA, ethyl acetoacetate]","reductions of ATP, all strains except S. marcescens",[1]; 10 mg/ml EAA,≥ 80%
same,"reduction of ATP content of the biofilm, almost all tested pathogens",[1]; 100 mg/ml of EAA flush,100%
same,reduction of ATP content depending on the strain,[1]; 10 and 100 mg/ml EAA,90-99%
same,biofilm amounts quantified by the CV assay,"Y. enterocolitica [2]; 37° C., 10 mg/ml EAA",abolished
same,IC50,"Y. enterocolitica [2]; Yersinia enterocolitica, Y. enterocolitica, 25° C.",1000 µg/mL
same,IC50,C. sakazakii,310 µg/mL
same,"difference in viable cells in the liquid, EAA vs media flush","P. aeruginosa [3]; before the 2nd treatment, 100 mg/ml of EAA as first treatment",< 2 log
same,"increase in viable cells in the liquid, EAA vs media flush","P. aeruginosa [3]; before the 4th treatment, 3 treatments of 100 mg/ml of EAA",~1 log
same,"difference in cell numbers, EAA vs media control","P. aeruginosa [3]; before the third treatment, two treatments of 100 mg/ml of EAA",approximately 2 logs
same,externally added E. coli count in the presence of EAA,"E. coli O157:H7; day 3, without EAA 5.2 log10",4.1 log10
same,reduction in the E. coli count,E. coli O157:H7; day 5 at 10° C.,1.6 log
same,"reduction in biofilm biomass (CV), words",P. aeruginosa [4]; first experiment,no reduction
same,biofilm biomass from the CV assay after EAA,"P. aeruginosa [4]; repeated experiment, untreated 0.78",0.24 OD600
same,reduction in the bacterial counts of S. enterica,"S. enterica; 0.5% EAA, 10° C.",not observed
same,"log reduction, Salmonella enterica serovar Typhimurium","S. enterica; 0.5% w/w EAA, 3 days at 10° C.",0.2
same,"difference in viable cells in the liquid, EAA vs media flush",S. aureus,2 log
same,"log reduction, total bacterial count","total bacterial count; 0.5% EAA, 3 days at 10° C.",2.4
same,"log reduction, total bacterial count","total bacterial count; 0.5% of EAA, 1 day at 10° C.",0.65
same,total bacterial count in the presence of EAA,total bacterial count; 0.5% of EAA,7.8 log10
same,reduction of total bacterial count,"total bacterial count; 2.5% EAA, 5 days at 10° C.",4.3 logs
same,"log reduction, total bacterial count","total bacterial count; 2.5% of EAA, 1 day at 10° C.",2.1
same,total bacterial count in the presence of EAA,total bacterial count; 2.5% of EAA,6.6 log10
same,"Different from 0% (concentrations grouping differently from untreated control, Fisher's LSD and t-test)",total bacterial count; 0.5% EAA,0.5%
same,"Different from 0% (concentrations grouping differently from untreated control, Fisher's LSD and t-test)",total bacterial count; 2.5% EAA,2.5%
same,reduction of cell counts within the biofilm,P. aeruginosa [5],about 3 logs
same,ATP content of P. aeruginosa biofilm,"P. aeruginosa [6]; 100 mg/ml EAA, first experiment",not affected; also recorded: not reduced
same,reduction of ATP,"P. aeruginosa [6]; P. aeruginosa, 10 mg/ml of EAA",76%
same,ATP assay of the biofilm at the end of the two week incubation,"P. aeruginosa [6]; P. aeruginosa, 100 mg/ml of EAA, repeated experiment",just about abolished the biofilm
same,mutagenicity,E. coli,a mutagenic effect could be detected
same,"log reduction, lactobacilli","lactobacilli; 0.5% w/w EAA, 3 days at 10° C.",1.8
same,"Different from 0% (concentrations grouping differently from untreated control, Fisher's LSD and t-test)",lactobacilli; 0.5% EAA,0.5%
same,"Different from 0% (concentrations grouping differently from untreated control, Fisher's LSD and t-test)",lactobacilli; 2.5% EAA,2.5%
same,reduction of bacterial cell counts in the biofilm,"Y. enterocolitica [7]; 25° C., 7.5 mg/ml EAA",2.06 logs
same,reduction of bacterial cell counts in the biofilm,"Y. enterocolitica [7]; 25° C., 10 mg/ml EAA",3.07 logs
same,bacterial cell counts in the biofilm,"Y. enterocolitica [7]; 37° C., 2.5 mg/ml EAA",did not show a reduction
same,log reduction of bacterial cell counts in the biofilm,"Y. enterocolitica [7]; 37° C., 7.5 mg/ml EAA",2.06 logs
same,log reduction in live bacteria within the biofilm,"Y. enterocolitica [7]; 37° C., 10 mg/ml of EAA",0.92
same,"reduction in live bacteria within the biofilm, fold equivalent","Y. enterocolitica [7]; 37° C., 10 mg/ml of EAA",8.3 fold
same,IC50,"Y. enterocolitica [7]; Yersinia enterocolitica, Y. enterocolitica, 25° C., live bacteria in the biofilm, read-out: IC50, Live cells",3000 µg/mL
same,"general health, hematology, serum, urine, renal function",rats,"did not result in any general health defects or changes in hematology, serum, urine, or renal function"
same,reduction in ATP content of the biofilm,S. marcescens,~100%
same,"reduction in biofilm biomass (CV), words",Y. enterocolitica [8],No reduction
